For this experiment, the target named is human F508del-CFTR (Homo sapiens, UniProt P13569, DEL508-508). Description: F508del-CFTR cell surface expression (corrector activity), DiscoveRx ß-galactosidase complementation chemiluminescence assay in recombinant U2OS cell line.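 For all read-outs here: U2OS cells co-expressing ProLink-tagged F508del-CFTR and a membrane-anchored enzyme acceptor, where more surface CFTR restores β-galactosidase activity measured by chemiluminescence.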 Conditions: U2OS cell line, 16h compound incubation; for EC50: EC50, F508del-CFTR cell surface expression, geomean values; for Emax: U2OS, in relation to the Emax of the corrector lumacaftor (=100%), arithmetic mean values.
Chain of human F508del-CFTR (P13569 with tags, fused parts or gaps DEL508-508): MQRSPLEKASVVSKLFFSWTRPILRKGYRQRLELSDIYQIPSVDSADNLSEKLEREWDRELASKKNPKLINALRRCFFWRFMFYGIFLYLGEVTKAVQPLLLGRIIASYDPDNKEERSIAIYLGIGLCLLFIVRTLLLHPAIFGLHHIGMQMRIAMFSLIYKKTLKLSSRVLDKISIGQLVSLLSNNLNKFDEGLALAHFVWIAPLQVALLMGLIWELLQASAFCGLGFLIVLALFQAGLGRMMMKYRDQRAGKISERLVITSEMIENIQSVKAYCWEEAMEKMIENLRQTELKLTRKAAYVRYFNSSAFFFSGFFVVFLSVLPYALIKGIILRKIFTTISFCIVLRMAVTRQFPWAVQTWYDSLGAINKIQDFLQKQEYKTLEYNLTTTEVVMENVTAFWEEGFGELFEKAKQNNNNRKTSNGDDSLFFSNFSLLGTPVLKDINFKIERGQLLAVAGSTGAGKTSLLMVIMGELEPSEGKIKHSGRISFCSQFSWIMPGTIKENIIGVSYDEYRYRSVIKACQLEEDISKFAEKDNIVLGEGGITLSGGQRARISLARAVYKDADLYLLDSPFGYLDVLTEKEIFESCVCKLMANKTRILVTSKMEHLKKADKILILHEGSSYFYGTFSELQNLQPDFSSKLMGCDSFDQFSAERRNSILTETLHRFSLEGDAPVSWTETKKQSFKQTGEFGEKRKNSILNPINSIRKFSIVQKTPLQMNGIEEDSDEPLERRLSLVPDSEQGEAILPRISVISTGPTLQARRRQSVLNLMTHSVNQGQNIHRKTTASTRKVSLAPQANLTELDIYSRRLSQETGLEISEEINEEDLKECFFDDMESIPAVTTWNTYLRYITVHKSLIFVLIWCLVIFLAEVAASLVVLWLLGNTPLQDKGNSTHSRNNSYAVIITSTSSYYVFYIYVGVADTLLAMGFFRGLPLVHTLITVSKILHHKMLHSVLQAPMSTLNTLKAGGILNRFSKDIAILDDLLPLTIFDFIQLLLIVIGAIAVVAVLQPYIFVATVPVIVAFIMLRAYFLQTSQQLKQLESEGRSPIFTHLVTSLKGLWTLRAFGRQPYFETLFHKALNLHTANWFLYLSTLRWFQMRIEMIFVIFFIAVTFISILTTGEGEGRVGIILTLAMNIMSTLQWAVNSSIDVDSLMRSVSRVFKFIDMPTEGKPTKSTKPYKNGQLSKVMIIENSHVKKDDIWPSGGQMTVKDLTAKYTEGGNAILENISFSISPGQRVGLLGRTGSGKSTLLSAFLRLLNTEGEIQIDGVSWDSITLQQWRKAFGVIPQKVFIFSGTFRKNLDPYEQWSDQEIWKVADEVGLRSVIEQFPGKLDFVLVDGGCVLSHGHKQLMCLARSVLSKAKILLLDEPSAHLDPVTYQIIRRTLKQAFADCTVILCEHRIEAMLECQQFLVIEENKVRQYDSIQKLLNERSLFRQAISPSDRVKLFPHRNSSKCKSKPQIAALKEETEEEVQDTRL

For orientation: EC50 means the concentration that produces a half-maximal response. Broadly, the Emax is the greatest response seen or fitted, relative to the assay's reference. Take `CC(C)C[C@H]1C(=O)N(C)C2(CC2)C(=O)N[C@H](Cc2ccccc2)COc2cnc3ccc(F)cc3c2C(=O)N[C@H](C(=O)NCCn2cc(C3CC3)cn2)CC(=O)N1C` [Example 172, (3′S,7′S,13′R)-13′-benzyl-N-(2-(4-cyclopropyl-1H-pyrazol-1-yl)ethyl)-20′-fluoro-7′-isobutyl-6′,9′-dimethyl-1′,5′,8′,11′-tetraoxo-2′,3′,4′,5′,6′,7′,8′,9′,11′,12′,13′,14′-dodecahydro-1′H-spiro[cyclopropane-1,10′-[1]oxa[4,7,10,14]tetraazacycloheptadecino[17,16-c]quinoline]-3′-carboxamide]: the concentration giving a half-maximal response (EC50) was 0.324 µM and the maximal effect (Emax) is 213%.

For `CC(C)C[C@H]1C(=O)N(C)C2(CC2)C(=O)N[C@H](Cc2ccccc2)COc2cnc3ccc(F)cc3c2C(=O)N[C@H](C(=O)NCCn2cc(Br)cn2)CC(=O)N1C` [Example 173, (3′S,7′S,13′R)-13′-benzyl-N-(2-(4-bromo-1H-pyrazol-1-yl)ethyl)-20′-fluoro-7′-isobutyl-6′,9′-dimethyl-1′,5′,8′,11′-tetraoxo-2′,3′,4′,5′,6′,7′,8′,9′,11′,12′,13′,14′-dodecahydro-1′H-spiro[cyclopropane-1,10′-[1]oxa[4,7,10,14]tetraazacycloheptadecino[17,16-c]quinoline]-3′-carboxamide], the EC50 turned out to be 0.455 µM and the Emax stood at 212%.

Regarding `COCCCc1cnn(CCNC(=O)[C@@H]2CC(=O)N(C)[C@@H](CC(C)C)C(=O)N(C)C3(CC3)C(=O)N[C@H](Cc3ccccc3)COc3cnc4ccc(F)cc4c3C(=O)N2)c1` [Example 174, (3′S,7′S,13′R)-13′-benzyl-20′-fluoro-7′-isobutyl-N-(2-(4-(3-methoxypropyl)-1H-pyrazol-1-yl)ethyl)-6′,9′-dimethyl-1′,5′,8′,11′-tetraoxo-2′,3′,4′,5′,6′,7′,8′,9′,11′,12′,13′,14′-dodecahydro-1′H-spiro[cyclopropane-1,10′-[1]oxa[4,7,10,14]tetraazacycloheptadecino[17,16-c]quinoline]-3′-carboxamide], the EC50 is 0.954 µM and the Emax was 194%.

Regarding `COc1cccc(C(F)(F)CNC(=O)[C@@H]2CC(=O)N(C)[C@@H](CC(C)C)C(=O)N(C)C3(CC3)C(=O)N[C@H](Cc3ccccc3)COc3cnc4ccccc4c3C(=O)N2)c1` [Example 175, (3′S,7′S,13′R)-13′-benzyl-N-(2,2-difluoro-2-(3-methoxyphenyl)ethyl)-7′-isobutyl-6′,9′-dimethyl-1′,5′,8′,11′-tetraoxo-2′,3′,4′,5′,6′,7′,8′,9′,11′,12′,13′,14′-dodecahydro-1′H-spiro[cyclopropane-1,10′-[1]oxa[4,7,10,14]tetraazacycloheptadecino[17,16-c]quinoline]-3′-carboxamide], the EC50 is 0.229 µM and the Emax stood at 179%.

Take `COc1nccc2c1C(=O)N[C@H](C(=O)NCCc1cnn(C3CC3)c1)CC(=O)N(C)[C@@H](CC(C)C)C(=O)N1CCCC[C@@H]1C(=O)N[C@H](Cc1ccccc1)CO2` [Example 176, (7S,11S,17aR,20R)-20-benzyl-N-(2-(1-cyclopropyl-1H-pyrazol-4-yl)ethyl)-11-isobutyl-4-methoxy-10-methyl-5,9,12,18-tetraoxo-5,6,7,8,9,10,11,12,15,16,17,17a,18,19,20,21-hexadecahydro-14H-dipyrido[2,1-f:3′,4′-p][1]oxa[4,7,10,14]tetraazacycloheptadecine-7-carboxamide]: the EC50 is 0.821 µM and the Emax worked out at 245%.

With `COc1nccc2c1C(=O)N[C@H](C(=O)NCCc1cc(C(F)(F)F)no1)CC(=O)N(C)[C@@H](CC(C)C)C(=O)N1CCCC[C@@H]1C(=O)N[C@H](Cc1ccccc1)CO2` [Example 177, (7S,11S,17aR,20R)-20-benzyl-11-isobutyl-4-methoxy-10-methyl-5,9,12,18-tetraoxo-N-(2-(3-(trifluoromethyl)isoxazol-5-yl)ethyl)-5,6,7,8,9,10,11,12,15,16,17,17a,18,19,20,21-hexadecahydro-14H-dipyrido[2,1-f:3′,4′-p][1]oxa[4,7,10,14]tetraazacycloheptadecine-7-carboxamide], the EC50 came to 0.647 µM and the Emax is 248%.

For the molecule `COc1nccc2c1C(=O)N[C@H](C(=O)NCCc1nc(C(F)(F)F)no1)CC(=O)N(C)[C@@H](CC(C)C)C(=O)N1CCCC[C@@H]1C(=O)N[C@H](Cc1ccccc1)CO2` [Example 178, (7S,11S,17aR,20R)-20-benzyl-11-isobutyl-4-methoxy-10-methyl-5,9,12,18-tetraoxo-N-(2-(3-(trifluoromethyl)-1,2,4-oxadiazol-5-yl)ethyl)-5,6,7,8,9,10,11,12,15,16,17,17a,18,19,20,21-hexadecahydro-14H-dipyrido[2,1-f:3′,4′-p][1]oxa[4,7,10,14]tetraazacycloheptadecine-7-carboxamide], the EC50 worked out at 0.68 µM and the maximal effect (Emax) was determined as 237%.

With `COc1nccc2c1C(=O)N[C@H](C(=O)NCCn1cc(C3CC3)cn1)CC(=O)N(C)[C@@H](CC(C)C)C(=O)N1CCCC[C@@H]1C(=O)N[C@H](Cc1ccccc1)CO2` [Example 179, (7S,11S,17aR,20R)-20-benzyl-N-(2-(4-cyclopropyl-1H-pyrazol-1-yl)ethyl)-11-isobutyl-4-methoxy-10-methyl-5,9,12,18-tetraoxo-5,6,7,8,9,10,11,12,15,16,17,17a,18,19,20,21-hexadecahydro-14H-dipyrido[2,1-f:3′,4′-p][1]oxa[4,7,10,14]tetraazacycloheptadecine-7-carboxamide], the EC50 stood at 0.731 µM and the Emax was determined as 251%.

Turning to `COc1cccc(CCNC(=O)[C@@H]2CC(=O)N(C)[C@@H](CC(C)C)C(=O)N3CCCC[C@@H]3C(=O)N[C@H](Cc3ccccc3)COc3ccnc(OC)c3C(=O)N2)c1` [Example 180, (7S,11S,17aR,20R)-20-benzyl-11-isobutyl-4-methoxy-N-(3-methoxyphenethyl)-10-methyl-5,9,12,18-tetraoxo-5,6,7,8,9,10,11,12,15,16,17,17a,18,19,20,21-hexadecahydro-14H-dipyrido[2,1-f:3′,4′-p][1]oxa[4,7,10,14]tetraazacycloheptadecine-7-carboxamide], the EC50 stood at 0.388 µM and the Emax amounted to 257%.

Consider `COc1nccc2c1C(=O)N[C@H](C(=O)NCCc1ccc(-c3ncccn3)cc1)CC(=O)N(C)[C@@H](CC(C)C)C(=O)N1CCCC[C@@H]1C(=O)N[C@H](Cc1ccccc1)CO2` [Example 181, (7S,11S,17aR,20R)-20-benzyl-11-isobutyl-4-methoxy-10-methyl-5,9,12,18-tetraoxo-N-(4-(pyrimidin-2-yl)phenethyl)-5,6,7,8,9,10,11,12,15,16,17,17a,18,19,20,21-hexadecahydro-14H-dipyrido[2,1-f:3′,4′-p][1]oxa[4,7,10,14]tetraazacycloheptadecine-7-carboxamide], for which the concentration giving a half-maximal response (EC50) came out at 0.718 µM and the Emax came to 251%.

For the molecule `COc1nccc2c1C(=O)N[C@H](C(=O)NCCc1nc(-c3ccccc3)no1)CC(=O)N(C)[C@@H](CC(C)C)C(=O)N1CCCC[C@@H]1C(=O)N[C@H](Cc1ccccc1)CO2` [Example 182, (7S,11S,17aR,20R)-20-benzyl-11-isobutyl-4-methoxy-10-methyl-5,9,12,18-tetraoxo-N-(2-(3-phenyl-1,2,4-oxadiazol-5-yl)ethyl)-5,6,7,8,9,10,11,12,15,16,17,17a,18,19,20,21-hexadecahydro-14H-dipyrido[2,1-f:3′,4′-p][1]oxa[4,7,10,14]tetraazacycloheptadecine-7-carboxamide], the EC50 is 0.406 µM and the Emax was 270%.

On to `COc1nccc2c1C(=O)N[C@H](C(=O)NCCc1ccccc1)CC(=O)N(C)[C@@H](CC(C)C)C(=O)N1CCCC[C@@H]1C(=O)N[C@H](Cc1ccccc1)CO2` [Example 183, (7S,11S,17aR,20R)-20-benzyl-11-isobutyl-4-methoxy-10-methyl-5,9,12,18-tetraoxo-N-phenethyl-5,6,7,8,9,10,11,12,15,16,17,17a,18,19,20,21-hexadecahydro-14H-dipyrido[2,1-f:3′,4′-p][1]oxa[4,7,10,14]tetraazacycloheptadecine-7-carboxamide], for which the 50% effective concentration (EC50) turned out to be 0.621 µM and the Emax stood at 237%.

With `COc1nccc2c1C(=O)N[C@H](C(=O)NCCc1ccc(Br)cc1)CC(=O)N(C)[C@@H](CC(C)C)C(=O)N1CCCC[C@@H]1C(=O)N[C@H](Cc1ccccc1)CO2` [Example 184, (7S,11S,17aR,20R)-20-benzyl-N-(4-bromophenethyl)-11-isobutyl-4-methoxy-10-methyl-5,9,12,18-tetraoxo-5,6,7,8,9,10,11,12,15,16,17,17a,18,19,20,21-hexadecahydro-14H-dipyrido[2,1-f:3′,4′-p][1]oxa[4,7,10,14]tetraazacycloheptadecine-7-carboxamide], the EC50 came to 0.41 µM and the Emax was 205%.

As to `COc1ccc(CCNC(=O)[C@@H]2CC(=O)N(C)[C@@H](CC(C)C)C(=O)N3CCCC[C@@H]3C(=O)N[C@H](Cc3ccccc3)COc3ccnc(OC)c3C(=O)N2)cc1` [Example 185, (7S,11S,17aR,20R)-20-benzyl-11-isobutyl-4-methoxy-N-(4-methoxyphenethyl)-10-methyl-5,9,12,18-tetraoxo-5,6,7,8,9,10,11,12,15,16,17,17a,18,19,20,21-hexadecahydro-14H-dipyrido[2,1-f:3′,4′-p][1]oxa[4,7,10,14]tetraazacycloheptadecine-7-carboxamide], the EC50 came out at 0.379 µM and the maximum response (Emax) worked out at 275%.

Take `COc1nccc2c1C(=O)N[C@H](C(=O)NCCc1cccc(C)c1)CC(=O)N(C)[C@@H](CC(C)C)C(=O)N1CCCC[C@@H]1C(=O)N[C@H](Cc1ccccc1)CO2` [Example 186, (7S,11S,17aR,20R)-20-benzyl-11-isobutyl-4-methoxy-10-methyl-N-(3-methylphenethyl)-5,9,12,18-tetraoxo-5,6,7,8,9,10,11,12,15,16,17,17a,18,19,20,21-hexadecahydro-14H-dipyrido[2,1-f:3′,4′-p][1]oxa[4,7,10,14]tetraazacycloheptadecine-7-carboxamide]: the EC50 stood at 0.644 µM and the maximal response (Emax) is 209%.

For the origin of these results see patent US20240208992A1, “MACROCYCLES AS CFTR MODULATORS” (Idorsia Pharmaceuticals Ltd, priority 2021, published 2024).
